Experimental data: ChEMBL document CHEMBL1156189, “Structure-function relationships of estrogenic triphenylethylenes related to endoxifen and 4-hydroxytamoxifen” (J Med Chem, 2010)
The source made the active and inactive calls. The calls are words filed in the database; no cut-off is given here.

Legend:
[1] = (§1) Estrogenic activity in human ERalpha expressing MCF7:WS8 cells assessed as stimulation of cell proliferation after 7 days; type: functional
[2] = Antiestrogenic activity in human ERalpha expressing MCF7:WS8 cells assessed as inhibition of estradiol-induced proliferation at 1 uM after 7 days; type: functional, cell-based
MCF7:WS8 = test: as §1; type: functional

Structure (SMILES): CCC(=C(c1ccc(O)cc1)c1ccc(O)cc1)c1ccccc1
- EC50 ([1]; mcf7:ws8): 5 10^-2nmol

Structure (SMILES): CCOc1ccc(/C(=C(/CC)c2ccc(O)cc2)c2ccc(O)cc2)cc1
- EC50 ([1]; Homo sapiens, MCF7:WS8, 168 h, read-out: EC50): 4 nM
- inhibition [2]: inactive

Structure (SMILES): C[C@]12CC[C@@H]3c4ccc(O)cc4CC[C@H]3[C@@H]1CC[C@@H]2O [ESTRADIOL]
- EC50 ([1]; mcf7:ws8): 0.001 nM

Structure (SMILES): CC/C(=C(/c1ccc(O)cc1)c1ccc(OCCN(C)C)cc1)c1ccccc1
- Activity (MCF7:WS8): inactive

Structure (SMILES): CC/C(=C(\c1ccc(O)cc1)c1ccc(OCCNC)cc1)c1ccccc1
- Activity (MCF7:WS8): inactive
- inhibition [2]: Active

Structure (SMILES): CCC(=C(c1ccc(O)cc1)c1ccc(OCCN(C)C)cc1)c1ccccc1
- Activity (MCF7:WS8): inactive
- inhibition [2]: Active

Structure (SMILES): CC/C(=C(/c1ccccc1)c1ccc(O)cc1)c1ccc(O)cc1
- EC50 ([1]; mcf7:ws8): 1 10^-1nmol

Structure (SMILES): CC/C(=C(\c1ccccc1)c1ccc(O)cc1)c1ccc(O)cc1
- EC50 ([1]; mcf7:ws8): 1 10^-1nmol

Structure (SMILES): CCC(=C(c1ccc(O)cc1)c1ccc(O)cc1)c1ccc(O)cc1
- EC50 ([1]; mcf7:ws8): 1.5 10^-1nmol
- inhibition [2]: inactive
